Measurements published in ChEMBL document CHEMBL1201862, “PubChem BioAssay data set” (2004).
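96-well plates; 48 h exposure; 5 concentrations. Endpoints by linear interpolation between flanking doses. Not reached: highest tested concentration assigned. Here, GI50 denotes the concentration required for 50% inhibition of growth.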 Active and inactive are the calls of the source. No stated cut-off is given here; in the data, active = GI50 up to about 1.1 µM and inactive = higher.

Legend:
Test in all cases: NCI-60 cell line screen, 48 h
786-0 = tested on: 786-0
A498 = tested on: A498
ACHN = tested on: ACHN
CCRF-CEM = tested on: CCRF-CEM
HCC 2998 = tested on: HCC 2998
HT-29 = tested on: HT-29
KM12 = tested on: KM12
MOLT-4 = tested on: MOLT-4
NCI-H23 = tested on: NCI-H23
OVCAR-3 = tested on: OVCAR-3
RPMI-8226 = tested on: RPMI-8226
SK-MEL-28 = tested on: SK-MEL-28
SK-MEL-5 = tested on: SK-MEL-5
SK-OV-3 = tested on: SK-OV-3
SNB-75 = tested on: SNB-75
SW-620 = tested on: SW-620
TK-10 = tested on: TK-10
UACC-257 = tested on: UACC-257
SNB-19 = tested on: SNB-19
BT-549 = tested on: BT-549

SMILES	GI50 (786-0)	GI50 (A498)	GI50 (ACHN)	GI50 (CCRF-CEM)	GI50 (HCC 2998)	GI50 (HT-29)	GI50 (KM12)	GI50 (MOLT-4)	GI50 (NCI-H23)	GI50 (OVCAR-3)	GI50 (RPMI-8226)	GI50 (SK-MEL-28)	GI50 (SK-MEL-5)	GI50 (SK-OV-3)	GI50 (SNB-75)	GI50 (SW-620)	GI50 (TK-10)	GI50 (UACC-257)	GI50 (SNB-19)	GI50 (BT-549)
O=S1(=O)CCCS(=O)(=O)C(c2ccccc2)=C1c1ccccc1	66.4 µM (inactive)	> 100 µM (inactive)	54 µM (inactive)	32.1 µM (inactive)	18.5 µM (inactive)	64 µM (inactive)	24.7 µM (inactive)	36.2 µM (inactive)	50.5 µM (inactive)	36.6 µM (inactive)	41 µM (inactive)	> 100 µM (inactive)	52.8 µM (inactive)	44.2 µM (inactive)	27.5 µM (inactive)	27.5 µM (inactive)	> 100 µM (inactive)	69.7 µM (inactive)		
CC1(Br)C(=O)NC(=O)N([C@H]2C[C@H](O)[C@@H](CO)O2)C1N=[N+]=[N-] (stereo partly drawn)	> 100 µM (inactive)	> 100 µM (inactive)	> 100 µM (inactive)	> 100 µM (inactive)	> 100 µM (inactive)	> 100 µM (inactive)	> 100 µM (inactive)	> 100 µM (inactive)	> 100 µM (inactive)	> 100 µM (inactive)	> 100 µM (inactive)	> 100 µM (inactive)	> 100 µM (inactive)	> 100 µM (inactive)	> 100 µM (inactive)	> 100 µM (inactive)	> 100 µM (inactive)	> 100 µM (inactive)	> 100 µM (inactive)	
O=C(Nc1ccccc1F)c1cc2ccc(O)cc2o/c1=N\c1ccccc1F	1.79 µM (inactive)		2.23 µM (inactive)	1.5 µM (inactive)	2.99 µM (inactive)	17.2 µM (inactive)	1.98 µM (inactive)	1.74 µM (inactive)	2.17 µM (inactive)	2.1 µM (inactive)	2.04 µM (inactive)	2.45 µM (inactive)	1.77 µM (inactive)	25.4 µM (inactive)		2.88 µM (inactive)		2.74 µM (inactive)	4.25 µM (inactive)	2.83 µM (inactive)
CN1CC[C@]2(C)c3c(O)cccc3CC3CCCC1C32C (stereo partly drawn)	> 100 µM (inactive)	> 100 µM (inactive)	> 100 µM (inactive)	> 100 µM (inactive)	15.8 µM (inactive)	> 100 µM (inactive)	> 100 µM (inactive)	> 100 µM (inactive)	> 100 µM (inactive)	> 100 µM (inactive)	> 100 µM (inactive)	> 100 µM (inactive)	> 100 µM (inactive)	> 100 µM (inactive)	45.4 µM (inactive)		> 100 µM (inactive)	> 100 µM (inactive)	> 100 µM (inactive)	
Cc1cccc2nc3cc(O)cc(O)c3c(O)c12	> 10 µM (inactive)		> 10 µM (inactive)	> 10 µM (inactive)		> 10 µM (inactive)	> 10 µM (inactive)	> 10 µM (inactive)	> 10 µM (inactive)	> 10 µM (inactive)	> 10 µM (inactive)	> 10 µM (inactive)	> 10 µM (inactive)	> 10 µM (inactive)	4.54 µM (inactive)	> 10 µM (inactive)	> 10 µM (inactive)	> 10 µM (inactive)	> 10 µM (inactive)	> 10 µM (inactive)
O=[PH](O)c1cccnc1	> 100 µM (inactive)	> 100 µM (inactive)	> 100 µM (inactive)	> 100 µM (inactive)	> 100 µM (inactive)	> 100 µM (inactive)	> 100 µM (inactive)	> 100 µM (inactive)	> 100 µM (inactive)	> 100 µM (inactive)	> 100 µM (inactive)	> 100 µM (inactive)	> 100 µM (inactive)	> 100 µM (inactive)	> 100 µM (inactive)	> 100 µM (inactive)	> 100 µM (inactive)	> 100 µM (inactive)	> 100 µM (inactive)	
N#CSC1CCCCNC1=O (stereo not drawn)	14.7 µM (inactive)		14.9 µM (inactive)	5.55 µM (inactive)	16.4 µM (inactive)	11.5 µM (inactive)	14.1 µM (inactive)	2.48 µM (inactive)	7.62 µM (inactive)	11.3 µM (inactive)	5.96 µM (inactive)	13.4 µM (inactive)		9.98 µM (inactive)			16.1 µM (inactive)	17.1 µM (inactive)	15.2 µM (inactive)	5.93 µM (inactive)
CC(=O)OC1C(COC(=O)c2ccccc2)OC(Nc2ncc(-c3ccc(Br)cc3)s2)C(OC(=O)c2ccccc2)C1OC(=O)c1ccccc1 (stereo not drawn)	84.1 µM (inactive)		> 100 µM (inactive)			> 100 µM (inactive)		> 100 µM (inactive)	> 100 µM (inactive)	> 100 µM (inactive)	> 100 µM (inactive)	> 100 µM (inactive)	> 100 µM (inactive)	> 100 µM (inactive)	> 100 µM (inactive)	> 100 µM (inactive)	> 100 µM (inactive)	> 100 µM (inactive)	> 100 µM (inactive)	> 100 µM (inactive)
Cc1ccc(S(=O)(=O)n2c3c(c4ccccc42)CCN2C[C@H]([C@H](C)Br)CC[C@@H]32)cc1	> 100 µM (inactive)	> 100 µM (inactive)	> 100 µM (inactive)	86.7 µM (inactive)	82.8 µM (inactive)	> 100 µM (inactive)	> 100 µM (inactive)	67.1 µM (inactive)	> 100 µM (inactive)	> 100 µM (inactive)	13.1 µM (inactive)	> 100 µM (inactive)	29.2 µM (inactive)	> 100 µM (inactive)	> 100 µM (inactive)	> 100 µM (inactive)	> 100 µM (inactive)	> 100 µM (inactive)	> 100 µM (inactive)	
O=C(Nc1ccccc1)OCCN=C1c2ccccc2C(Br)C(Br)c2ccccc21 (stereo not drawn)	2.82 µM (inactive)	13.2 µM (inactive)	10.2 µM (inactive)	1.49 µM (inactive)	14.8 µM (inactive)	5.25 µM (inactive)	13.2 µM (inactive)	2.01 µM (inactive)	10.4 µM (inactive)	6.12 µM (inactive)	4.37 µM (inactive)	9.06 µM (inactive)	12.3 µM (inactive)	15.7 µM (inactive)	13.3 µM (inactive)	4.43 µM (inactive)	4.48 µM (inactive)	6.59 µM (inactive)	14.9 µM (inactive)	
COC(=O)C12OCC34C(CC5C(C)C6=CC(=O)OC6=CC5(C)C3C(O)C1O)OC(=O)C(OC(C)=O)C24 (stereo not drawn)	14.5 µM (inactive)	21.2 µM (inactive)	15.7 µM (inactive)	6.37 µM (inactive)	16.1 µM (inactive)	16.3 µM (inactive)	16.4 µM (inactive)	14.8 µM (inactive)	15.1 µM (inactive)	14.3 µM (inactive)	12.1 µM (inactive)	15.5 µM (inactive)	15.3 µM (inactive)	29 µM (inactive)	0.887 µM (active)	9.4 µM (inactive)	17.4 µM (inactive)	14.1 µM (inactive)	33.2 µM (inactive)	
